In patent publication US4269940A, “Microbiological alkane oxidation process” (priority 1979, dated 1981):
Like-named read-outs stand apart in the source and are kept apart here.

Legend:
[1] = system: purified secondary alcohol dehydrogenase; experiment: Substrate and electron acceptor specificity of purified yeast secondary alcohol dehydrogenase; format: biochemical, Pichia sp. NRRL Y-11,328; details: for Oxidation by the purified yeast enzyme (in words): examined spectrophotometrically
Procedure: (§1) Large scale cultures of Pichia sp. NRRL Y-11,328 were grown with aeration at 30° C. in a 14-liter New Brunswick f fermentor in a mineral salt medium containing methanol (0.4%, v/v) as the sole carbon source. The cells (200 g., wet weight) were suspended in 50 mm sodium phosphate buffer, pH 7.0, containing 1 mM dithiothreitol (buffer A), and crude extracts were prepared as described previously. To the crude extracts, 18 ml. of protamine sulfate solution [2% solution in 0.1 M tris (hydroxymethyl) aminomethane (tris) base] was added dropwise with continuous stirring. After standing for 30 min., the extracts were centrifuged at 20,000 x g. for 60 min. The supernatant solution was fractioned with solid ammonium sulfate. Extracts were brought to 50% of saturation with respect to ammonium sulfate by addition of 313 g. of the salt per liter of extract. Precipitated proteins was removed by centrifugation, and 137 g. of ammonium sulfate was added per liter of the supernatant liquid to bring it to 70% of saturation. Material precipitating between 50 and 70% of saturation was collected by centrifugation and dissolved in buffer A. This preparation was dialyzed overnight against buffer A, and the dialyzed material was applied to a DEAE-cellulose column (5×40 cm) that had been equilibrated with buffer A. The sample was washed with 200 ml. of buffer A and eluted with 2 liters of buffer A that contained NaCl in a linear gradient running from a concentration of 0 to 0.5 M. Fractions of 15 ml. were collected. Fractions containing secondary alcohol dehydrogenase activity were pooled and were termed DEAE-cellulose eluate. The DEAE-cellulose eluate was concentrated by ammonium sulfate fractionation.
(§2) Secondary alcohol dehydrogenase activity was measured spectrophotometrically at 340 nm with a NAD^+ as an electron acceptor. The reaction mixture, in a total 3.0 ml., contained 50 mM phosphate buffer, pH 8.0, 5μmoles NAD^+, crude extracts, and substrate. The reactions were started by addition of 100 μof 0.1 M substrate and the rate of NAD^+ reduction was measured. Protein concentration was determined by the method of Lowry et al.
The substrate specificity of the purified secondary alcohol dehydrogenase was examined spectrophotometrically.

[2] = system: secondary alcohol dehydrogenase (SADH); experiment: Inhibition of purified secondary alcohol dehydrogenase (SADH); format: biochemical, Pseudomonas sp. ATCC 21439
Procedure: (§3) Secondary alcohol dehydrogenase (SADH) from an obligate methanol utilizer, Pseudomonas sp. ATCC 21439 was purified as follows. […] 0.05 M sodium phosphate buffer, pH 7.0 with 0.5mM dithiothretol (buffer A) and were disrupted sonically (5×1 min.). The crude extract was separated by centrifugation. The crude extract was heat-treated at 50° C. in a water bath for 10 minutes. The resulting precipitate was removed by centrifugation. To the supernatant solution, 25 ml of protamine sulfate solution (2% solution in 0.1 M Tris base) was added dropwise with continuous stirring. After standing for 30 minutes, the extract was centrifuged. The supernatant solution was fractionated with solid ammonium sulfate. […] This DEAE-cellulose eluate was concentrated by ammonium sulfate fractionation. Material precipitating between 30 and 50% ammonium sulfate saturation was collected by centrifugation and dialyzed overnight against A. This fraction was further washed and filtered through an Amicon unit with XM 50 membrane. The concentrated fraction (6 ml) inside the Amicon unit was applied to an Affi-Gel Blue column (0.8 cm ×18 cm) which had been equilibrated with buffer A for affinity chromatography. The column was washed overnight with buffer A (0.18 ml./min.) and then was eluted with buffer A containing 5 mM NAD. Each 1 ml. fraction was collected.
(§4) The purified secondary alcohol dehydrogenase enzyme (SADH) may be used directly for converting C3 -C6 secondary alcohols to the corresponding methyl ketones by the procedures described above; however, a source of NAD^+ must be added to the reaction medium. One can determine the NAD-linked secondary alcohol dehydrogenase activity with a fluorescence spectrophotometer (Perkin Elmer, Model MPF 44A) by following the formation of reduced NAD (Ex 340 nm, Em 460 nm). The assay system (3 ml.) will typically contain: sodium phosphate buffer pH 7.0, 150 μmol; NAD 1.0 μmol; a given amount of enzyme preparation; and 20 μmol secondary alcohol. The reaction is started by the addition of secondary alcohol. One unit of SADH enzyme activity represents the reduction of one nmole NAD per minute.
The effect of metal-chelating agents and thioreagents on the activity of the purified SADH enzyme were studied. […] The possibility of ethanol or n-propanol as an inhibitor was studied.

[3] = system: purified secondary alcohol dehydrogenase; experiment: Inhibition of purified yeast secondary alcohol dehydrogenase; format: biochemical, Pichia sp. NRRL Y-11,328; details: purified yeast enzyme
Procedure: as §1, §2
Various primary alcohols not oxidized by secondary alcohol dehydrogenase were tested as potential inhibitors of enzyme activity.

[4] = system: P(40) fraction of Methylosinus sp. (CRL-15, NRRL B-11,202); experiment: Effect of inhibitors on propylene epoxidation and methane hydroxylation by P(40) fraction (Table XI); format: biochemical; details: inhibitor 10^-3 M
Procedure: The oxidation of methane and propylene by particulate [(P)40 and (P)80] fractions and soluble [S(80)] fraction was measured at 30° C. by estimating the production of methanol and propylene oxide, respectively. The reaction mixtures contained in 1.0 ml: 150 mM potassium phosphate buffer, pH 7.0 containing 5 mM MgC2, 0.6 ml; 10 μmoles NADH, and cellular fraction.
Reaction mixtures were contained in 10 ml vials at 4° C. Vials were sealed with rubber caps. The gaseous phase in the vials was removed using vacuum and then was replaced with a gas mixture of methane or propylene and oxygen at a 1:1, v/v ratio. Oxidation of other gaseous n-alkanes and n-alkenes was examined as described above. For liquid substrates, 10 μ of substrate was used directly. Vials were then incubated at 30° C. on a rotary shaker at 200 RPM.
The products of epoxidation of n-alkenes and hydroxylation of n-alkanes were assayed by flame ionization gas chromatography using a stainless steel column (12'×1/8") packed with 10% Carbowax 20M on 80/100 Chromosorb W and Porapak Q column. The column temperature was maintained isothermally at 120° C. The carrier gas flow rate was 30 ml/min. of helium. The various products were identified by retention time comparisons and co-chromatography with authentic standards.
It has been reported that the oxidation of methane by cell suspensions of methane-utilizing bacteria was inhibited by various metal-binding or metal-chelating agents (Patel et al., J. Bacteriol. 126: 1017-1019 (1976)). […] (CRL-15, NRRL B-11,202) was examined.

[5] = system: cell suspensions of the strains of C1-utilizers tested; experiment: Production of methyl ketones from secondary alcohols by cell suspensions of C1-utilizers (strains tested); format: cell-based; details: for Inhibition of production of 2-butanone from 2-butanol: cell suspensions of the strains tested; for Rate of oxidation of secondary alcohols to methyl ketones: cell suspensions of C1-utilizers
Excerpt: The substrate specificity for the oxidation of C3 -C6 secondary alcohols by the strains of C1 -utilizers was studied.

[6] = system: cell-free particulate fractions derived from the methylotrophic microorganisms; experiment: Inhibition of conversion of C3-C6 n-alkanes to sec. alcohols by cell-free particulate fractions; format: biochemical; details: oxygen and NADH
Excerpt: The conditions for preparing the cell suspensions or the cell-free particulate fractions from methane-grown methylotroph microorganisms is the same as described above.

[7] = system: secondary alcohol dehydrogenase (SADH); experiment: Substrate specificity and Michaelis constants of purified SADH; format: biochemical, Pseudomonas sp. ATCC 21439
Procedure: as §3, §4

[8] = inhibitor 1 mM, measured spectrofluorometrically

## CCCCCCC(C)O (stereo not drawn) [2-octanol]
[1]
  Oxidation by the purified yeast enzyme (in words): not oxidized

## [Fe+3] [ferric]
[2]; [8]
  % inhibition of SADH activity: 35%

## O=C(O)c1cc(SSc2ccc([N+](=O)[O-])c(C(=O)O)c2)ccc1[N+](=O)[O-] [5,5'-dithiobis(2-nitrobenzoic acid)]
[2]; [8]
  % inhibition of SADH activity: 100%

## CCN1C(=O)C=CC1=O [N-ethylmalemide]
[2]; [8]
  % inhibition of SADH activity: 6%

## CC(O)CO (stereo not drawn) [1,2-propandiol]
[1]
  Oxidation by the purified yeast enzyme (in words): not oxidized

## [Co+2] [Co^++]
[2]; [8]
  % inhibition of SADH activity: 0%

## CCCCO [butan-1-ol]
[1]
  Oxidation by the purified yeast enzyme (in words): not oxidized

## O=[N+]([O-])[O-].[Ag+] [silver nitrate]
[3]
  Inhibition of secondary alcohol dehydrogenase activity (in words): inhibited

## NC(N)=S [Thiourea]
[4]
  % inhibition of methane-hydroxylating activity: 98%
  % inhibition of propylene-epoxidizing activity: 98%
[5]
  Inhibition of production of 2-butanone from 2-butanol: not inhibited
[2]; [8]
  % inhibition of SADH activity: 0%
[6]
  Inhibition of conversion of C3-C6 n-alkanes to sec. alcohols (in words): inhibited

## CC(C)CO [isobutanol]
[7]
  Oxidation by purified SADH (in words): not oxidized

## NNC(N)=S [Thiosemicarbazide]
[4]
  % inhibition of methane-hydroxylating activity: 100%
  % inhibition of propylene-epoxidizing activity: 97%
[6]
  Inhibition of conversion of C3-C6 n-alkanes to sec. alcohols (in words): inhibited

## CCC(O)CO (stereo not drawn) [butane 1,2-diol]
[7]
  Oxidation by purified SADH (in words): not oxidized
[1]
  Oxidation by the purified yeast enzyme (in words): not oxidized

## [Mg+2] [Mg^++]
[2]; [8]
  % inhibition of SADH activity: 0%

## [Cu+2] [cupric]
[2]; [8]
  % inhibition of SADH activity: 25%

## CC(O)CCO (stereo not drawn) [butane 1,3-diol]
[7]
  Oxidation by purified SADH (in words): oxidized at a lower rate
[1]
  Oxidation by the purified yeast enzyme (in words): not oxidized

## Oc1cccc2cccnc12 [8-Hydroxyquinoline]
[4]
  % inhibition of methane-hydroxylating activity: 80%
  % inhibition of propylene-epoxidizing activity: 75%
[6]
  Inhibition of conversion of C3-C6 n-alkanes to sec. alcohols (in words): inhibited

## O=S(=O)([O-])[O-].[Cu+2] [Cupric Sulfate]
[3]
  Inhibition of secondary alcohol dehydrogenase activity (in words): inhibited

## CO [methanol]
[1]
  Oxidation by the purified yeast enzyme (in words): not oxidized

## cytochrome c: cytochrome c tested as electron carrier [reference compound]
[1]; purified enzyme
  Function as electron acceptor/carrier for the purified yeast enzyme: could not act as electron carrier

## CCCCCC(C)O (stereo not drawn) [2-heptanol]
[5]
  Rate of oxidation of secondary alcohols to methyl ketones: much slower rate
[1]
  Oxidation by the purified yeast enzyme (in words): not oxidized

## C=O [formaldehyde]
[7]
  Oxidation by purified SADH (in words): not oxidized

## CCCCC(C)O (stereo not drawn) [2-hexanol]
[5]
  Rate of oxidation of secondary alcohols to methyl ketones: much slower rate
[7]
  Oxidation by purified SADH (in words): oxidized at a lower rate
[1]
  Oxidation by the purified yeast enzyme (in words): catalyzed the oxidation

## O=C(O)c1cc[c]([Hg+])cc1.[OH-] [p-hydroxymercuribenzoate]
[2]; [8]
  % inhibition of SADH activity: 100%
[3]
  Inhibition of secondary alcohol dehydrogenase activity (in words): strongly inhibited

## c1c[nH]cn1 [Imidazole]
[3]
  Inhibition of secondary alcohol dehydrogenase activity (in words): strongly inhibited

## CCC=O [propanal]
[7]
  Oxidation by purified SADH (in words): oxidized at a lower rate

## O=C(O)CCC(=O)O [succinic acid]
[7]
  Oxidation by purified SADH (in words): not oxidized

## CCCO [n-propanol]
[1]
  Oxidation by the purified yeast enzyme (in words): not oxidized

## O=Cc1ccccc1 [benzaldehyde]
[7]
  Oxidation by purified SADH (in words): not oxidized

## c1cnc2c(c1)ccc1cccnc12 [1,10-phenanthroline]
[4]
  % inhibition of methane-hydroxylating activity: 90%
  % inhibition of propylene-epoxidizing activity: 93%
[5]
  Inhibition of production of 2-butanone from 2-butanol: inhibited
[2]; [8]
  % inhibition of SADH activity: 95%
[3]
  Inhibition of secondary alcohol dehydrogenase activity (in words): strongly inhibited
[6]
  Inhibition of conversion of C3-C6 n-alkanes to sec. alcohols (in words): inhibited

## c1ccc(-c2ccccn2)nc1 [α,α-bipyridyl]
[4]
  % inhibition of methane-hydroxylating activity: 99%
  % inhibition of propylene-epoxidizing activity: 98%
[5]
  Inhibition of production of 2-butanone from 2-butanol: inhibited
[2]; [8]
  % inhibition of SADH activity: 70%
[6]
  Inhibition of conversion of C3-C6 n-alkanes to sec. alcohols (in words): inhibited

## OC1CCCCC1 [cyclohexanol]
[7]
  Oxidation by purified SADH (in words): oxidized at a lower rate

## [N-]=[N+]=[N-] [Sodium azide]
[2]; [8]
  % inhibition of SADH activity: 10%

## CCO [ethanol]
[1]
  Oxidation by the purified yeast enzyme (in words): not oxidized

## [Ni+2] [nickel]
[2]; [8]
  % inhibition of SADH activity: 20%

## [Mn+2] [Mn^++]
[2]; [8]
  % inhibition of SADH activity: 0%

## N#C[S][Hg][S]C#N [mercuric thiocyanate]
[3]
  Inhibition of secondary alcohol dehydrogenase activity (in words): inhibited

## CC(O)C(C)O (stereo not drawn) [butane 2,3-diol]
[7]
  Oxidation by purified SADH (in words): oxidized at a lower rate

## CCCCCO [pentan-1-ol]
[1]
  Oxidation by the purified yeast enzyme (in words): not oxidized

## CC=O [acetaldehyde]
[7]
  Oxidation by purified SADH (in words): oxidized at a lower rate

## Oc1ccccc1 [phenol]
[7]
  Oxidation by purified SADH (in words): not oxidized

## O=C(O)CI [iodoacetic acid]
[2]
  % inhibition of SADH activity: 0%

## CCCC(C)O (stereo not drawn) [2-pentanol]
[5]
  Rate of oxidation of secondary alcohols to methyl ketones: much slower rate
[7]
  Oxidation by purified SADH (in words): oxidized at a lower rate
[1]
  Oxidation by the purified yeast enzyme (in words): catalyzed the oxidation

## [Fe+2] [ferrous]
[2]; [8]
  % inhibition of SADH activity: 50%

## [Zn+2] [Zn^++]
[2]; [8]
  % inhibition of SADH activity: 0%
